Assay results as given in patent US9161935B2 (TEVA PHARMACEUTICAL INDUSTRIES, LTD., priority 2012, dated 2015).

Test system: Sub-Populations of Crohn's Disease Patients
Assay: CD-LAQ-201 sub-populations of Crohn's disease patients (Example 2)
Type: in vivo, human
Conditions: for Remission - N (%): % / Remission - N (%): N: week 8
Procedure: This study was conducted according and with similar requirements as presented in Example 1. […] Patients, who have received anti-TNFαs in the past, tend to reflect a more severe, refractory segment of the Crohn's disease population. […] This sub-cohort analysis describes remission rates at week 8 for patients who were classified as having a predominantly inflammatory disease (based on the Montreal classifications) versus those that have a fibrostenotic or penetrating disease.

[1] = Laq 0.5 mg, Oral steroids on Baseline NO
[2] = Laq 0.5 mg, Oral steroids on Baseline YES
[3] = Laq 0.5 mg, Previous Operations NO
[4] = Laq 0.5 mg, Previous Operations YES
[5] = Laq 0.5 mg, Previous use of anti-TNFαs NO
[6] = Laq 0.5 mg, Previous use of anti-TNFαs YES
[7] = Laq 1.0 mg, Oral steroids on Baseline NO
[8] = Laq 1.0 mg, Oral steroids on Baseline YES
[9] = Laq 1.0 mg, Previous Operations NO
[10] = Laq 1.0 mg, Previous Operations YES
[11] = Laq 1.0 mg, Previous use of anti-TNFαs NO
[12] = Laq 1.0 mg, Previous use of anti-TNFαs YES

CCN(C(=O)c1c(O)c2c(Cl)cccc2n(C)c1=O)c1ccccc1 [laquinimod]
effect on remission at week 8 with or without previous anti-TNFαs (0.5 mg): remains robust on both sub-populations | effect on remission at week 8 in fibrostenotic or penetrating disease (0.5 mg or 1 mg): no effect | effectiveness in anti-TNF refractory patients (FIG. 1) (0.5 mg/day laquinimod): robustly effective | effectiveness in anti-TNF refractory patients (FIG. 1) (1 mg/day laquinimod): effective relative to placebo | CDAI Change from Baseline - Mean ± SD (Laq 0.5 mg, Fibrostenotic): −9.3 | Responders70 - N (%): % (Laq 0.5 mg, Fibrostenotic): 42.9% | Responders70 - N (%): N (Laq 0.5 mg, Fibrostenotic): 3 | Responders100 - N (%): % (Laq 0.5 mg, Fibrostenotic): 28.6% | Responders100 - N (%): N (Laq 0.5 mg, Fibrostenotic): 2 | Remission - N (%): % (Laq 0.5 mg, Fibrostenotic): 14.3% | Remission - N (%): N (Laq 0.5 mg, Fibrostenotic): 1 | CDAI Change from Baseline - Mean ± SD (Laq 0.5 mg, Inflammatory): −125.1 | Responders70 - N (%): % (Laq 0.5 mg, Inflammatory): 68.2% | Responders70 - N (%): N (Laq 0.5 mg, Inflammatory): 15 | Responders100 - N (%): % (Laq 0.5 mg, Inflammatory): 63.6% | Responders100 - N (%): N (Laq 0.5 mg, Inflammatory): 14 | Remission - N (%): % (Laq 0.5 mg, Inflammatory): about 60% | Remission - N (%): N (Laq 0.5 mg, Inflammatory): 13 | Remission - N (%): % (Laq 0.5 mg, Inflammatory, listed as Laq): 59.1% | CDAI Change from Baseline - Mean ± SD [1]: −85.3 | Responders70 - N (%): % [1]: 57.9% | Responders70 - N (%): N [1]: 11 | Responders100 - N (%): % [1]: 47.4% | Responders100 - N (%): N [1]: 9 | Remission - N (%): % [1]: about 40% | Remission - N (%): N [1]: 8 | Remission - N (%): % (Laq 0.5 mg, Oral steroids on Baseline NO, listed as Laq): 42.1% | CDAI Change from Baseline - Mean ± SD [2]: −119.8 | Responders70 - N (%): % [2]: 70.0% | Responders70 - N (%): N [2]: 7 | Responders100 - N (%): % [2]: 70.0% | Responders100 - N (%): N [2]: 7 | Remission - N (%): % [2]: approximately 60% | Remission - N (%): N [2]: 6 | Remission - N (%): % (Laq 0.5 mg, Oral steroids on Baseline YES, listed as Laq): 60.0% | CDAI Change from Baseline - Mean ± SD [3]: −118.1 | Responders70 - N (%): % [3]: 62.5% | Responders70 - N (%): N [3]: 15 | Responders100 - N (%): % [3]: 58.3% | Responders100 - N (%): N [3]: 14 | Remission - N (%): % [3]: higher than 50% | Remission - N (%): N [3]: 13 | Remission - N (%): % (Laq 0.5 mg, Previous Operations NO, listed as Laq): 54.2% | CDAI Change from Baseline - Mean ± SD [4]: 3.2 | Responders70 - N (%): % [4]: 60.0% | Responders70 - N (%): N [4]: 3 | Responders100 - N (%): % [4]: 40.0% | Responders100 - N (%): N [4]: 2 | Remission - N (%): % [4]: 20.0% | Remission - N (%): N [4]: 1 | CDAI Change from Baseline - Mean ± SD [5]: −88.2 | Responders70 - N (%): % [5]: 63.6% | Responders70 - N (%): N [5]: 7 | Responders100 - N (%): % [5]: 54.5% | Responders100 - N (%): N [5]: 6 | Remission - N (%): % [5]: 54.5% | Remission - N (%): N [5]: 6 | CDAI Change from Baseline - Mean ± SD [6]: −102.7 | Responders70 - N (%): % [6]: 61.1% | Responders70 - N (%): N [6]: 11 | Responders100 - N (%): % [6]: 55.6% | Responders100 - N (%): N [6]: 10 | Remission - N (%): % [6]: 44.4% | Remission - N (%): N [6]: 8 | CDAI Change from Baseline - Mean ± SD (Laq 1.0 mg, Fibrostenotic): −65.8 | Responders70 - N (%): % (Laq 1.0 mg, Fibrostenotic): 41.7% | Responders70 - N (%): N (Laq 1.0 mg, Fibrostenotic): 5 | Responders100 - N (%): % (Laq 1.0 mg, Fibrostenotic): 41.7% | Responders100 - N (%): N (Laq 1.0 mg, Fibrostenotic): 5 | Remission - N (%): % (Laq 1.0 mg, Fibrostenotic): 16.7% | Remission - N (%): N (Laq 1.0 mg, Fibrostenotic): 2 | CDAI Change from Baseline - Mean ± SD (Laq 1.0 mg, Inflammatory): −76.7 | Responders70 - N (%): % (Laq 1.0 mg, Inflammatory): 61.1% | Responders70 - N (%): N (Laq 1.0 mg, Inflammatory): 11 | Responders100 - N (%): % (Laq 1.0 mg, Inflammatory): 38.9% | Responders100 - N (%): N (Laq 1.0 mg, Inflammatory): 7 | Remission - N (%): % (Laq 1.0 mg, Inflammatory): 33.3% | Remission - N (%): N (Laq 1.0 mg, Inflammatory): 6 | CDAI Change from Baseline - Mean ± SD [7]: −59.4 | Responders70 - N (%): % [7]: 50.0% | Responders70 - N (%): N [7]: 9 | Responders100 - N (%): % [7]: 33.3% | Responders100 - N (%): N [7]: 6 | Remission - N (%): % [7]: 22.2% | Remission - N (%): N [7]: 4 | CDAI Change from Baseline - Mean ± SD [8]: −93.5 | Responders70 - N (%): % [8]: 58.3% | Responders70 - N (%): N [8]: 7 | Responders100 - N (%): % [8]: 50.0% | Responders100 - N (%): N [8]: 6 | Remission - N (%): % [8]: 33.3% | Remission - N (%): N [8]: 4 | CDAI Change from Baseline - Mean ± SD [9]: −77.9 | Responders70 - N (%): % [9]: 55.6% | Responders70 - N (%): N [9]: 10 | Responders100 - N (%): % [9]: 38.9% | Responders100 - N (%): N [9]: 7 | Remission - N (%): % [9]: 33.3% | Remission - N (%): N [9]: 6 | CDAI Change from Baseline - Mean ± SD [10]: −66.0 | Responders70 - N (%): % [10]: 50.0% | Responders70 - N (%): N [10]: 6 | Responders100 - N (%): % [10]: 41.7% | Responders100 - N (%): N [10]: 5 | Remission - N (%): % [10]: 16.7% | Remission - N (%): N [10]: 2 | CDAI Change from Baseline - Mean ± SD [11]: −38.5 | Responders70 - N (%): % [11]: 27.3% | Responders70 - N (%): N [11]: 3 | Responders100 - N (%): % [11]: 27.3% | Responders100 - N (%): N [11]: 3 | Remission - N (%): % [11]: 18.2% | Remission - N (%): N [11]: 2 | CDAI Change from Baseline - Mean ± SD [12]: −36.8 | Responders70 - N (%): % [12]: 27.8% | Responders70 - N (%): N [12]: 5 | Responders100 - N (%): % [12]: 27.8%
